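The compound was tested at five concentrations on cells cultured in 96-well plates, with a 48-hour exposure period. At the GI50, growth is halved. The concentration for full growth arrest is given as TGI.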
Key:
Experiment in all cases: growth of human tumour cells (NCI), 48 h
IGROV1 ovarian = tested on: IGROV1 ovarian
EKVX NSCLC = tested on: EKVX NSCLC
UO-31 renal = tested on: UO-31 renal
NCI-H522 lung = tested on: NCI-H522 lung
SK-MEL-2 melanoma = tested on: SK-MEL-2 melanoma
SK-MEL-28 melanoma = tested on: SK-MEL-28 melanoma
COLO 205 colon = tested on: COLO 205 colon
K-562 leukemia = tested on: K-562 leukemia
RPMI-8226 leukemia = tested on: RPMI-8226 leukemia
HCC-2998 colon = tested on: HCC-2998 colon

Row | Compound | GI50 (IGROV1 ovarian) [µM] | TGI (IGROV1 ovarian) [µM] | GI50 (EKVX NSCLC) [µM] | TGI (EKVX NSCLC) [µM] | GI50 (UO-31 renal) [µM] | TGI (UO-31 renal) [µM] | GI50 (NCI-H522 lung) [µM] | TGI (NCI-H522 lung) [µM] | GI50 (SK-MEL-2 melanoma) [µM] | TGI (SK-MEL-2 melanoma) [µM] | GI50 (SK-MEL-28 melanoma) [µM] | TGI (SK-MEL-28 melanoma) [µM] | GI50 (COLO 205 colon) [µM] | TGI (COLO 205 colon) [µM] | GI50 (K-562 leukemia) [µM] | TGI (K-562 leukemia) [µM] | GI50 (RPMI-8226 leukemia) [µM] | TGI (RPMI-8226 leukemia) [µM] | TGI (HCC-2998 colon) [µM] | GI50 (HCC-2998 colon) [µM]
1 | COc1cc(/C=C2\CC3C4CC=C5CC(N6CCCC6)CC[C@]5(C)C4CC[C@]3(C)C2OC(C)=O)ccc1OCCN1CCCC1 (some centres undefined) | 1.8 | 3.63 | 3.41 | 13.4 | 1.86 | 3.35 | 1.69 | 3.25 | 2.09 | 3.7 | 2.51 | 5.42 | 3.61 | 12.9 | 1.04 | 3.19 | 1.67 | 3.82 |  | 
2 | Cn1c(N)nc2c(nc(OCc3ccccc3)n2C2OC(CO)C(O)C2O)c1=O (centres undefined) |  | > 100 |  | > 100 |  | > 100 |  | > 100 |  | > 100 |  | > 100 |  | > 100 |  | > 100 |  | > 100 |  | 
3 | N#Cc1c(N)c(C(=O)O)nn(-c2cccc(C(F)(F)F)c2)c1=O |  | > 100 |  | > 100 |  | > 100 |  | > 100 |  | > 100 |  | > 100 |  | > 100 |  | > 100 |  | > 100 |  | 
4 | CC1(C)OC(=O)C=C([O-])O1.CC1(C)OC(=O)C=C([O-])O1.O=c1c(O)c(-c2ccc([O-])cc2[O-])oc2cc(O)cc(O)c12.[Ti+4] |  | > 100 |  | > 100 |  | 90.5 |  | 63 |  | 67.5 |  | > 100 |  | > 100 |  | > 100 | 59 | > 100 |  | 
5 | NC(N)=N/N=C/c1c(-c2ccccn2)nc2sc(Cl)cn12 | 6.21 | 13.7 | 8.95 | 16.1 | 7.85 | 14.8 | 7.86 | 15.3 | 7.93 | 15.1 |  |  | 6.26 | 17 | 3.4 | 13.8 | 11.5 | 29 |  | 
6 | O=C1N[C@@H](O)[C@@H]2ON=C(c3ccccc3)[C@H]12 |  | > 100 |  | > 100 |  | > 100 |  |  |  | > 100 |  | > 100 |  | > 100 |  | > 100 |  | > 100 | > 100 | 
7 | O=C1c2ccccc2-c2c1c1ccccc1c(=O)n2CCNCCCNCCn1c2c(c3ccccc3c1=O)C(=O)c1ccccc1-2 | 1.19 | > 50 | 1.07 | 3.07 | 0.221 | 1 | 2.91 | 14.1 | 0.514 | 2.2 | 0.0667 | > 50 | 0.637 | 1.59 |  |  | 0.00933 | 0.259 |  | 
8 | Cc1ccc(-c2nc(C(Cl)Cl)n3nc(-c4ccccc4)cc3n2)cc1 | 0.711 | > 100 |  |  |  |  | > 100 | > 100 |  |  |  |  |  |  | 1.07 | > 100 | 0.499 | 3.11 |  | 
9 | COc1ccc(C2=NC(C)(C)CO2)cc1 |  | > 100 |  | > 100 |  |  |  |  |  | > 100 |  | > 100 |  | > 100 |  | > 100 |  | > 100 |  | 
10 | CC(=O)OCCOCBr |  | > 100 |  | > 100 |  | > 100 |  | > 100 |  | > 100 |  | > 100 |  | > 100 |  | > 100 |  | > 100 |  | 
11 | CCCS(=O)(=O)c1nc(NC2CC2)cc(-c2ccc3c(ccn3C3CC(C)(C)NC(C)(C)C3)c2)n1 | 1.97 | 3.81 | 1.84 | 3.71 | 1.6 | 3.16 |  |  | 1.88 | 3.41 |  |  | 1.84 | 3.39 | 0.777 | 2.48 | 2 | 5.27 |  | 
12 | c1cc[c]([Sn]([S]c2cccc3cccnc23)([c]2ccccc2)[c]2ccccc2)cc1 | 0.0943 | 0.351 | 0.0558 | 0.37 | 0.0511 | 0.145 |  |  |  |  | 0.0364 | 0.15 | 0.017 | 0.0352 |  |  |  |  | 0.096 | 0.0433
13 | Cc1ccc(C(=O)CC(Sc2cccc(Cl)c2Cl)c2ccc(Cl)cc2)cc1C (centres undefined) | 19.7 | 41.2 | 21.6 | 42.1 | 20 | 40.9 | 26.2 | 61.9 | 20.2 | 39 | 20.5 | 44.8 | 20.8 | 46.5 | 27.2 | > 100 | 5.76 | 48.2 |  | 
14 | NC1=NC(=O)C(CC(=O)Nc2ccc([N+](=O)[O-])cc2[N+](=O)[O-])S1 (centres undefined) |  | > 100 |  | > 100 |  | > 100 |  |  |  | > 100 |  | > 100 |  | > 100 |  |  |  | > 100 | > 100 | 
15 | Clc1ccc(CNc2nc3ccccc3nc2-c2cccs2)c(Cl)c1 |  |  |  | > 100 |  | > 100 |  |  |  | > 100 |  | > 100 |  | > 100 |  | > 100 |  | > 100 | > 100 | 
16 | O=C1CCn2c([nH]c3cccc4cccc2c43)=N1 |  | > 100 |  | > 100 |  | > 100 |  |  |  |  |  | > 100 |  | > 100 |  | > 100 |  | > 100 | > 100 | 

Source: PubChem BioAssay (NCI)
